Publication PMC5983811, “Protein Tyrosine Phosphatase 1B Inhibition and Glucose Uptake Potentials of Mulberrofuran G, Albanol B, and Kuwanon G from Root Bark of Morus alba L. in Insulin-Resistant HepG2 Cells: An In Vitro and In Silico Study” (International Journal of Molecular Sciences, 2018)

Tests used:
[1] = target: T1, PTP1B (human recombinant) (Homo sapiens, UniProt P18031); test: PTP1B inhibitory assay (pNPP substrate) and kinetic study; format: biochemical; settings: for Ki: Dixon plot, read-out: Protein Tyrosine Phosphatase 1B Ki; for IC50: pNPP substrate, mean ± SEM of triplicate experiments, read-out: Protein Tyrosine Phosphatase 1B IC50; for Protein Tyrosine Phosphatase 1B Inhibition Type: Lineweaver-Burk plot
T1 construct: purchased Biomol International LP (Plymouth Meeting, PA, USA)
T1 sequence (P18031 1-435): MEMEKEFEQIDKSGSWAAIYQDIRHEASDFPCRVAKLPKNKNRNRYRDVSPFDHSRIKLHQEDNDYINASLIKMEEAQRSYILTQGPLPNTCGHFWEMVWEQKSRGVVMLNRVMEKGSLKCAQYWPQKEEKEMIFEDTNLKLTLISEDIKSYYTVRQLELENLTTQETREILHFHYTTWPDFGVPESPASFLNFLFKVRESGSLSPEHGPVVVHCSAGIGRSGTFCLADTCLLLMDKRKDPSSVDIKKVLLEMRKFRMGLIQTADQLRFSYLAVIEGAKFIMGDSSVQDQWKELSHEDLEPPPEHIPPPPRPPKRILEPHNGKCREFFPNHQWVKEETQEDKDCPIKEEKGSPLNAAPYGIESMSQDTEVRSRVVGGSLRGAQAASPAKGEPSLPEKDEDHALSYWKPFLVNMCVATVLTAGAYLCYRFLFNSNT
Procedure: PTP1B inhibitory activity was evaluated using pNPP [44]. Recombinant PTP1B enzyme (0.5 units diluted in PTP1B reaction buffer) was added to a plate with or without sample. The plate was pre-incubated at 37 °C for 10 min, and then substrate (2 mM pNPP) was added. Following incubation at 37 °C for 15 min, the enzymatic reaction was terminated by addition of 10 M NaOH. The absorbance was measured at 405 nm using a microplate spectrophotometer (Molecular Devices, Sunnyvale, CA, USA).
(§1) Lineweaver–Burk plots for inhibition of PTP1B were obtained in the presence of various concentrations of the test compounds (0, 0.18, 0.44 and 1.78 μM for 1; 0, 0.27, 0.54, and 1.07 μM for 2; 0, 0.87, 1.44, and 2.89 μM for 3). Similarly, for the inhibition of α-glucosidase, text concentrations used were 0, 0.71, 1.07, and 1.78 μM for 1; 0, 0.36, 0.9, and 1.79 μM for 2 and 0, 0.72, 2.88, and 5.77 μM for 3. The enzymatic procedure consisted of the same aforementioned assay method. The inhibition constants (Ki) were determined via interpretation of the Dixon plots, where the value of the x-axis implies −Ki.

[2] = Cytotoxicity in HepG2 cells (MTT assay); format: cell-based; settings: human, read-out: viable cell %
Procedure: In order to determine safe concentrations for cell experiments, the cytotoxicity of our test compounds in HepG2 cells was evaluated using an 3-(4,5-dimethylthiazol-2-yl)-2,5-diphenyltetrazolium bromide (MTT) assay. […] However, at 10 µM, the level of toxicity was high for 1 (viable cell %; 36), followed by 2 (viable cell %; 73) and 3 (viable cell %; 85). Therefore, 1.25, 2.5, and 5 µM concentrations were used in further cell experiments.
(§2) HepG2 (human hepatocarcinoma) cells, purchased from the American Type Culture Collection (HB-8065; Manassas, VA, USA), were maintained in 10% FBS MEM at 37 °C in a humidified atmosphere with 5% CO2. Medium was changed every 48 h. Cytotoxicity was evaluated using the MTT assay. Following the method previously described, insulin-resistant HepG2 cell model was established. All the other experiment conditions and procedures were similar to those reported in our previous paper.

PTP1B expression = PTP1B expression level in insulin-resistant HepG2 cells (Western blot); format: cell-based, human
Procedure: Insulin-resistant HepG2 cells were exposed to different concentrations of 1–3 or rosiglitazone (10 μM) in 24-well plates. After 24 h of incubation with samples, the media in the wells was replaced with 100 nM insulin diluted in SFMEM and incubated at 37 °C for 30 min. Cells were then washed twice with ice-cold PBS, collected, and lysed with sample buffer (50 mM HEPES, pH 7.5, 150 mM NaCl, 2.5 mM EDTA, 0.5% NP-40, 1 mM PMSF, 1 mM DTT, 0.2% aprotinin, 0.5% leupeptin, 20 mM NaF, and 1 mM Na3VO4). Protein was quantified by the modified Bradford protein assay kit using BSA as a standard. Total protein (50 μg) was electrophoresed on sodium dodecyl sulfate-polyacrylamide gels (Bio-Rad, Hercules, CA, USA) and then transferred to polyvinylidene difluoride (PVDF) membranes (Immobilon-P; Millipore, Burlington, MA, USA) using the Pierce G2 Fast Blotter (Thermo Fisher Scientific Inc., Fair Lawn, NJ, USA) at 100 V for 60 min in a standard semi-dry system. Membranes were blocked in blocking buffer (5% skim milk powder in TBS-Tween buffer containing 10 mM Tris, 100 mM NaCl, and 0.1% Tween-20, pH 7.4) and incubated overnight with primary antibodies at 4 °C on a shaker, followed by incubation with appropriate secondary antibodies for 2 h at room temperature. The membranes were washed three times with TBST (3 × 10 min each) and the protein bands were visualized with the Supersignal West Pico Chemiluminescence Substrate (Pierce, Rockford, IL, USA) on X-ray films (Kodak, Rochester, NY, USA) and quantitated using CS analyzer software (Atto Corp., Tokyo, Japan).

α-glucosidase = test: α-Glucosidase inhibitory assay (pNPG substrate) and kinetic study; format: biochemical; settings: for Ki: Dixon plot; for α-Glucosidase Inhibition Type: Lineweaver-Burk plot; for IC50: pNPG substrate, mean ± SEM of triplicate experiments
Procedure: The enzyme inhibition study was carried out spectrophotometrically using the procedure previously reported. The α-glucosidase activity was determined by measuring release of […] at 405 nm using a microplate spectrophotometer (Molecular Devices).
as §1

[3] = tested on: insulin-resistant HepG2 cells; test: Glucose uptake assay (2-NBDG) in insulin-resistant HepG2 cells; format: cell-based, human
Procedure: as §2
The glucose uptake rate in insulin-resistant HepG2 cells was assessed using the fluorescent D-glucose analog 2-NBDG. Once the induction of insulin resistance was accomplished, cell solutions in the wells were substituted with different concentrations of 1–3 or a positive control, rosiglitazone (10 µM), prepared in serum-free MEM (SFMEM) in respective groups. After 24 h incubation with samples, the media in the wells was replaced with 100 nM insulin diluted in SFMEM and incubated for 30 min. Cells were then incubated with 40 μM 2-NBDG for 30 min and washed with ice-cold PBS. The fluorescence intensity of 2-NBDG was measured on a fluorescence microplate reader (FL ×800, Bio-Tek Instruments, Inc., Winooski, VT, USA) at 485 nm excitation and 528 nm emission wavelengths. Six replicate wells were established, and each experiment was repeated three times.

Ki [1] [nM] | IC50 [1] [nM] | Protein Tyrosine Phosphatase 1B Inhibition Type [1] | Ki (α-glucosidase) [nM] | α-Glucosidase Inhibition Type (α-glucosidase) | IC50 (α-glucosidase) [nM] | SMILES | viability at 10 µM [2] [%] | PTP1B expression (PTP1B expression; concentration dependent) | PTP1B expression (PTP1B expression; 10 μM) | relative % glucose uptake ([3]; 10 µM) [%] | PTP1B expression (PTP1B expression; 2.5 and 5 μM) | relative glucose uptake percentage ([3]; 5 µM) [%]
1020 | 800 ± 20 |  |  |  |  | Cc1cc2c3c(c1)-c1c(O)cc(-c4cc5ccc(O)cc5o4)cc1O[C@@]3(c1ccc(O)cc1O)Oc1cc(O)ccc1-2 [Compounds 2] | 73 |  |  |  |  | 
1980 | 2260 ± 30 | Mixed type | 2510 | Mixed type | 2350 ± 30 | CC(C)=CCc1c(-c2ccc(O)cc2O)oc2c([C@H]3C=C(C)C[C@@H](c4ccc(O)cc4O)[C@@H]3C(=O)c3ccc(O)cc3O)c(O)cc(O)c2c1=O [Compound 3, kuwanon G] | 85 | downregulated the expression towards normal |  |  |  | 
 |  |  |  |  |  | CN(CCOc1ccc(CC2SC(=O)NC2=O)cc1)c1ccccn1 (stereo not shown) [rosiglitazone, reference compound] |  |  | declined | 123 |  | 
700 | 570 ± 40 | Mixed type | 1200 | Mixed type | 1670 ± 20 | CC1=C[C@H]2c3c(O)cc(-c4cc5ccc(O)cc5o4)cc3O[C@@]3(c4ccc(O)cc4O)Oc4cc(O)ccc4[C@H](C1)[C@@H]23 [Compound 1, mulberrofuran G] | 36 |  |  |  | diminished the PTP1B expression almost completely | 140
